Results taken from ChEMBL document CHEMBL4261615, “Design, synthesis, biological evaluation and cellular imaging of imidazo[4,5-b]pyridine derivatives as potent and selective TAM inhibitors” (Bioorg Med Chem, 2018).

Assays:
[1] = biological target: Fibroblast growth factor receptor 1 (Homo sapiens) (UniProt P11362); test: Binding affinity to wild-type human partial length FGFR1 (P357 to V669 residues) expressed in bacterial expression system assessed as fraction of unbound kinase to substrate at 1 uM after 1 hr by KinomeScan assay
[2] = biological target: Fibroblast growth factor receptor 1 (Homo sapiens) (UniProt P11362); test: Binding affinity to wild-type human partial length FGFR1 (P357 to V669 residues) expressed in bacterial expression system assessed as fraction of unbound kinase to substrate at 0.1 uM after 1 hr by KinomeScan assay
[3] = biological target: Glycogen synthase kinase-3 beta (Homo sapiens) (UniProt P49841); test: Binding affinity to full length wild type human GSK3beta (M1 to T433 residues) expressed in mammalian expression system assessed as fraction of unbound kinase to substrate at 10 uM after 1 hr by KinomeScan assay
[4] = biological target: Tyrosine-protein kinase ABL1 (Homo sapiens) (UniProt P00519); test: Binding affinity to human wild type ABL1 (229 to 512 residues) expressed in mammalian expression system assessed as fraction of unbound kinase to substrate at 0.1 uM after 1 hr by KinomeScan assay
[5] = biological target: T1, Tyrosine-protein kinase Mer (Homo sapiens) (UniProt Q12866); test: Binding affinity to wild-type partial length human MER (R557 to L884 residues) expressed in bacterial expression system assessed as fraction of unbound kinase to substrate at 1 uM after 1 hr by KinomeScan assay
T1 sequence (whole entry): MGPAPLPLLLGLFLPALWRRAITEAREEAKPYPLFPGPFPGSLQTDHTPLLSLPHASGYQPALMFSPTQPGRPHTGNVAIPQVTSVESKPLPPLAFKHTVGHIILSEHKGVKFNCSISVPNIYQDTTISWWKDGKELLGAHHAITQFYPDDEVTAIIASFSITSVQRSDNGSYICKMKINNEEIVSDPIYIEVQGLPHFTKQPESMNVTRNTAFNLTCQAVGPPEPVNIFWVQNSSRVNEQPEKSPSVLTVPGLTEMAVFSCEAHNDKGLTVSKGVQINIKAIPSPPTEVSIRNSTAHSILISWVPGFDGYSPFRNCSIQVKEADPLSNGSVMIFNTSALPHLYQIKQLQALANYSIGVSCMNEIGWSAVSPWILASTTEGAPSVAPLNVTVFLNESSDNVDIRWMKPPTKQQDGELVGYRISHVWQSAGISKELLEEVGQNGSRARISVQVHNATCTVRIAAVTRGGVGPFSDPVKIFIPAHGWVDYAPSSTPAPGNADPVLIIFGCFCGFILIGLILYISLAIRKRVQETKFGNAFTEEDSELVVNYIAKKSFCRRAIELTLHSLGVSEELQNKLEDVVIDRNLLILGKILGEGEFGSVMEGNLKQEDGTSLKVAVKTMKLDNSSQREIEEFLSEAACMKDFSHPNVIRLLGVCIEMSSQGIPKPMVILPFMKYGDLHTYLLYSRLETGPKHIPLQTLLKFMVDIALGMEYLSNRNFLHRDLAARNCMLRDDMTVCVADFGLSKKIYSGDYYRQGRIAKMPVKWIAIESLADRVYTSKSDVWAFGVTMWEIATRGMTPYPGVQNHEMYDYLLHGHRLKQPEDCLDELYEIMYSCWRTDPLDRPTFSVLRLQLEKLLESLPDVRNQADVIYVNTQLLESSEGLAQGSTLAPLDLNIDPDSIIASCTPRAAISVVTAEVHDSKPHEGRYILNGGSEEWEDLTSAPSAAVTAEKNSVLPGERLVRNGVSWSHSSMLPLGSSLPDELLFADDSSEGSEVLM

[6] = biological target: Glycogen synthase kinase-3 beta (Homo sapiens) (UniProt P49841); test: Binding affinity to full length wild type human GSK3beta (M1 to T433 residues) expressed in mammalian expression system assessed as fraction of unbound kinase to substrate at 0.1 uM after 1 hr by KinomeScan assay
[7] = biological target: T2, Aurora kinase A (Homo sapiens) (UniProt O14965); test: Binding affinity to wild-type human partial length AURKA (E122 to K401 residues) expressed in mammalian expression system assessed as fraction of unbound kinase to substrate at 0.1 uM after 1 hr by KinomeScan assay
T2 sequence (whole entry): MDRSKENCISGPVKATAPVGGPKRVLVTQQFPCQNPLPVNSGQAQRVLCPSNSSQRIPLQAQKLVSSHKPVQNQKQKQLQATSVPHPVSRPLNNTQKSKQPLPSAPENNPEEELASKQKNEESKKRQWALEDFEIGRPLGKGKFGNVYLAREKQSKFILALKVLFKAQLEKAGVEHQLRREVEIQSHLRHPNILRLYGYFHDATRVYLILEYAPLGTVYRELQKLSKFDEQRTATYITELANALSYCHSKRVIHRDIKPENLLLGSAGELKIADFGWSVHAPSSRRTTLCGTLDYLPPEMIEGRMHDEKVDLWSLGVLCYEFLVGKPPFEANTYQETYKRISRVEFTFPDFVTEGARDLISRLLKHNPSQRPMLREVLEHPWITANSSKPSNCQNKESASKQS

[8] = biological target: Epidermal growth factor receptor (Homo sapiens) (UniProt P00533); test: Binding affinity to partial length wild type human EGFR (R669 to V1011 residues) expressed in bacterial expression system assessed as fraction of unbound kinase to substrate at 0.1 uM after 1 hr by KinomeScan assay
[9] = biological target: Tyrosine-protein kinase receptor UFO (Homo sapiens) (UniProt P30530); test: Binding affinity to human AXL (R497 to Y821 residues) expressed in bacterial expression system assessed as fraction of unbound kinase to substrate at 0.1 uM after 1 hr by KinomeScan assay
[10] = biological target: Tyrosine-protein kinase receptor UFO (Homo sapiens) (UniProt P30530); test: Binding affinity to human AXL (R497 to Y821 residues) expressed in bacterial expression system assessed as fraction of unbound kinase to substrate at 10 uM after 1 hr by KinomeScan assay
[11] = biological target: Cyclin-dependent kinase 2 (Homo sapiens) (UniProt P24941); test: Binding affinity to wild-type human full length CDK2 (M1 to L298 residues) expressed in bacterial expression system assessed as fraction of unbound kinase to substrate at 0.1 uM after 1 hr by KinomeScan assay

Chain of Tyrosine-protein kinase receptor UFO (Homo sapiens) (P30530 whole entry, the tested form may be a part): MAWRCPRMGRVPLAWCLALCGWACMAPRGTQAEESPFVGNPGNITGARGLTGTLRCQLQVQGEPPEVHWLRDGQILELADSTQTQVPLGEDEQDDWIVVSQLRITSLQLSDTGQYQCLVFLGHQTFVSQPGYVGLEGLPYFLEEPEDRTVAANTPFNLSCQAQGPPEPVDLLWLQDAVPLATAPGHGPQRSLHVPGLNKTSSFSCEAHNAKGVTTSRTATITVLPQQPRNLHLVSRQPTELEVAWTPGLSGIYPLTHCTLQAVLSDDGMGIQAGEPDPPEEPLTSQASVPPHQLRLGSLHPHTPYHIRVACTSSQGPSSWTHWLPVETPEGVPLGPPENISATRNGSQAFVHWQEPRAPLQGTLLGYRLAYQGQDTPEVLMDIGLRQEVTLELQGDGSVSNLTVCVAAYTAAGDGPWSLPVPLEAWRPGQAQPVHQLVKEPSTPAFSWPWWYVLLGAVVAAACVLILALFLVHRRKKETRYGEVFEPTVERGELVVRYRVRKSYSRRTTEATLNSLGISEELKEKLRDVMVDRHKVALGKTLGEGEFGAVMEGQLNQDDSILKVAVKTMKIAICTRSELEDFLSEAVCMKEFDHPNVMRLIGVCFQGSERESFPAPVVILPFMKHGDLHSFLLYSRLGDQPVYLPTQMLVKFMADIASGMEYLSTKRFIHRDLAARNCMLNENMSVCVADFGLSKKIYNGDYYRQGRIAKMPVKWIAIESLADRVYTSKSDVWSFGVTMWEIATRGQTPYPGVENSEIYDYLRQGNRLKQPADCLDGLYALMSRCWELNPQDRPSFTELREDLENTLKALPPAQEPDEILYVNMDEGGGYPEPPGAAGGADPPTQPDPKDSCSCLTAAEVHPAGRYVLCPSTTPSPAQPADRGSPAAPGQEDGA
Chain of Tyrosine-protein kinase ABL1 (Homo sapiens) (P00519 whole entry, the tested form may be a part): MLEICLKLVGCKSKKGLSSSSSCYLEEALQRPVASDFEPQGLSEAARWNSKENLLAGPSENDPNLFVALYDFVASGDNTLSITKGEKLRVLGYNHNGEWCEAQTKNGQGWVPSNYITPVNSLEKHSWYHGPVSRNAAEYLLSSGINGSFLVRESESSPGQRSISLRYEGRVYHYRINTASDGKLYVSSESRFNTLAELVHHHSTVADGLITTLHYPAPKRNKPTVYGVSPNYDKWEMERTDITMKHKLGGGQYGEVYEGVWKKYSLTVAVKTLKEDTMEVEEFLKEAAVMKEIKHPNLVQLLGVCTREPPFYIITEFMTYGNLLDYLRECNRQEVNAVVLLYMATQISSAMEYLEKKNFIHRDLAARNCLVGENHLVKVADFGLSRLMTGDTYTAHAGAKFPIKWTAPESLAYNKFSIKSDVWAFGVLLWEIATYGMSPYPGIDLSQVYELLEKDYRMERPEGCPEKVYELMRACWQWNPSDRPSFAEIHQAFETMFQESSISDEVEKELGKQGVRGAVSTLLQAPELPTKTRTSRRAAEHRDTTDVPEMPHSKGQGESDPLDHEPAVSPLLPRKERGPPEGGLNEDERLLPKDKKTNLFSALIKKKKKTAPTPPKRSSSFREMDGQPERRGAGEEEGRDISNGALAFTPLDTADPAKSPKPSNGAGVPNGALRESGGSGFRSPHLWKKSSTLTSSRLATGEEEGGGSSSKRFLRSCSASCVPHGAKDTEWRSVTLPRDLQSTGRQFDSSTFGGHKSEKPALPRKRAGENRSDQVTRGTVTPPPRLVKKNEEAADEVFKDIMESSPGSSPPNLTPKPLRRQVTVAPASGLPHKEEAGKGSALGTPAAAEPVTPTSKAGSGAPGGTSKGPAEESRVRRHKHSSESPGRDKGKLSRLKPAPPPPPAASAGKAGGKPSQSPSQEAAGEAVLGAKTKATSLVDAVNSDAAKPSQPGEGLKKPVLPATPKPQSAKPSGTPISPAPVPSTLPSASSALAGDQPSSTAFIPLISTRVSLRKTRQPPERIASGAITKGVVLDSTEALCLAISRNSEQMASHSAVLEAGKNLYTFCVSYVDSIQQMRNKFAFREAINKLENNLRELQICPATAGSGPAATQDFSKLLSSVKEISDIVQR
Chain of Epidermal growth factor receptor (Homo sapiens) (P00533 whole entry, the tested form may be a part): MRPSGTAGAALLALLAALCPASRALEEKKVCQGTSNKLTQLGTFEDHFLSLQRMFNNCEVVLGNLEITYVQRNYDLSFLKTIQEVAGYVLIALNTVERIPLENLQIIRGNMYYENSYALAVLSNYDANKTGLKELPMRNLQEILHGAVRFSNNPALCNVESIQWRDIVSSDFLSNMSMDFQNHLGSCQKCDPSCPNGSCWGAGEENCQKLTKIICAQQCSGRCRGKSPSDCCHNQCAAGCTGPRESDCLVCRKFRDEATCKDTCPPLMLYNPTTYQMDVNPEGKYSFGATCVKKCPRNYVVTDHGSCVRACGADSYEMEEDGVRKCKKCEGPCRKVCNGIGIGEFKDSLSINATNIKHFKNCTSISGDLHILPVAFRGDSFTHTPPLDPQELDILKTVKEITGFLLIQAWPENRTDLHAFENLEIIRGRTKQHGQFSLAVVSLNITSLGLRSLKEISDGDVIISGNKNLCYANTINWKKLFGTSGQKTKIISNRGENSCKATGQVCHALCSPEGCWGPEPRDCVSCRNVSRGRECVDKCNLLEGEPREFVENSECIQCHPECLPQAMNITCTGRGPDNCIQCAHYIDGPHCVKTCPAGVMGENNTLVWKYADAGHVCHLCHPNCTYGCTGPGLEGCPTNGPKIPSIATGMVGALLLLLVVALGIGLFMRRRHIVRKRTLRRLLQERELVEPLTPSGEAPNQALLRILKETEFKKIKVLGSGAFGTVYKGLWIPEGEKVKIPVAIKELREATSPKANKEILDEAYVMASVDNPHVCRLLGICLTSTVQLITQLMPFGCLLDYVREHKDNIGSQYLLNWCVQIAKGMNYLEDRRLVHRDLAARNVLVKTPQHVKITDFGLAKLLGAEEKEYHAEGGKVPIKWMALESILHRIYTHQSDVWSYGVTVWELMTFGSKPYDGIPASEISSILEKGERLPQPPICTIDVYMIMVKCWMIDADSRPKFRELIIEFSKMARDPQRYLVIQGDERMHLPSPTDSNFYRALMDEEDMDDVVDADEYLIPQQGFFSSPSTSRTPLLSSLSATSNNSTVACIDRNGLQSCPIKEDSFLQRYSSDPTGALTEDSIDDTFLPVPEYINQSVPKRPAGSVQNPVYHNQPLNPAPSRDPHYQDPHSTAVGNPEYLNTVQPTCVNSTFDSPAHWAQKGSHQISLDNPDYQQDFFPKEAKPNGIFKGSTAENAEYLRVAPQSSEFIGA
Chain of Fibroblast growth factor receptor 1 (Homo sapiens) (P11362 22-822 limits assumed): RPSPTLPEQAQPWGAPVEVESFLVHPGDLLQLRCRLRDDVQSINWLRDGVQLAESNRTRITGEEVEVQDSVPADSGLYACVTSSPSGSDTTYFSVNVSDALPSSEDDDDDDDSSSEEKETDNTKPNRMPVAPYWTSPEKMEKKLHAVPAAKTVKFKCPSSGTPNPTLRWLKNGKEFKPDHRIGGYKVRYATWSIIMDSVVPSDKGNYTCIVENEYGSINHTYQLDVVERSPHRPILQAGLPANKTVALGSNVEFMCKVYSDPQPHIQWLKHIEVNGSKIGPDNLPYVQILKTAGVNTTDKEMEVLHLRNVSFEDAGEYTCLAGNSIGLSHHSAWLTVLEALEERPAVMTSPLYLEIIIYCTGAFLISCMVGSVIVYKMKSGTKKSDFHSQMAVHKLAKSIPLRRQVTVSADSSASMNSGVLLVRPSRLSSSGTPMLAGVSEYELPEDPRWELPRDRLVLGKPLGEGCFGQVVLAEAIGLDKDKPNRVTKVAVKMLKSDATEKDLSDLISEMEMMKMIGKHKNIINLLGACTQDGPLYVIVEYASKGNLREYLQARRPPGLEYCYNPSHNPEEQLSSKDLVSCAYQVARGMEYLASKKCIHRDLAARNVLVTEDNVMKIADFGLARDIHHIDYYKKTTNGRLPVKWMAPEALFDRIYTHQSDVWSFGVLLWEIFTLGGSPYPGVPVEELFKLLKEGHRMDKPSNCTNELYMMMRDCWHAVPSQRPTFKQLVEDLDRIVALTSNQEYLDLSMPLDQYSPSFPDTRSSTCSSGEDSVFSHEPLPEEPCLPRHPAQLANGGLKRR
Chain of Glycogen synthase kinase-3 beta (Homo sapiens) (P49841 whole entry, looked up, the tested form may be a part): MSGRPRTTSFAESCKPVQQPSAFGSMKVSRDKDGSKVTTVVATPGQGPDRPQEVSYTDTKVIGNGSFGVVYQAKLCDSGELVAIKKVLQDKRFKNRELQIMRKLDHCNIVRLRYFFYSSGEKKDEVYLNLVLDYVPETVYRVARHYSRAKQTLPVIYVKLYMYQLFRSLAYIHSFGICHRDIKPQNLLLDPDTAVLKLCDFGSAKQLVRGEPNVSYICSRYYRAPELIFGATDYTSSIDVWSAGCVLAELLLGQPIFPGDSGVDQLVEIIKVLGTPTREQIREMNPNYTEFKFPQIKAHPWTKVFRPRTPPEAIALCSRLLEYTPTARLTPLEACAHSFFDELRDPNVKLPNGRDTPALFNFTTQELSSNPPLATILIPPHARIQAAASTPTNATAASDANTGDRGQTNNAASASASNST

| Activity [1] | Activity [2] | Activity [3] | Activity [4] | Activity [5] | Activity [6] | Activity [7] | Activity [8] | Activity [9] | Activity [10] | Activity [11] | Compound |
| --- | --- | --- | --- | --- | --- | --- | --- | --- | --- | --- | --- |
| 1% | 7% | 0% | 0% | 60% | 0% | 7% | 0% | 4% | 90.4% | 0% | O=C(Nc1ccc(Oc2c(Br)cnc3[nH]cnc23)c(F)c1)c1cccn(-c2ccc(F)cc2)c1=O |
| 1% | 7% | 0% | 1% | 99.6% | 0% | 1% | 2% | 61% | 89% | 41% | CC(C)c1nc2c(Oc3ccc(NC(=O)c4cccn(-c5ccc(F)cc5)c4=O)cc3F)ccnc2[nH]1 |
| 2% | 8% | 0% | 1% | 78% | 2% | 1% | 1% | 22% | 90.1% | 0% | Cc1cnc2[nH]cnc2c1Oc1ccc(NC(=O)c2cccn(-c3ccc(F)cc3)c2=O)cc1F |
| 2% | 1% | 6% | 2% | 99.3% | 0% | 5% | 0% | 78% | 93.3% | 0% | O=C(Nc1ccc(Oc2ccnc3[nH]cnc23)c(F)c1)c1cccn(-c2ccc(F)cc2)c1=O |
